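All cell lines were grown in 96-well plates and treated with compound for 48 hours. GI50 marks 50% less growth. TGI is the concentration that stops growth completely.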 Where a SMILES comes first, the peptide text is derived from it. The star is where a group is joined. Cbz = O=C(OCc1ccccc1)*; Boc = CC(C)(C)OC(=O)*; tBu = CC(C)(C)*
Tests used:
Test in all cases: DTP human tumour cell line panel, 48 h
[1] = tested on: EKVX NSCLC
[2] = tested on: HCT-15 colon
[3] = tested on: HL-60(TB) leukemia
[4] = tested on: HT29 colon
[5] = tested on: KM12 colon
[6] = tested on: MCF7 breast
[7] = tested on: MDA-MB-435
[8] = tested on: MDA-N
[9] = tested on: NCI-H226 lung
[10] = tested on: NCI-H23 lung
[11] = tested on: NCI/ADR-RES ovarian
[12] = tested on: OVCAR-3 ovarian
[13] = tested on: OVCAR-4 ovarian
[14] = tested on: OVCAR-8 ovarian
[15] = tested on: RXF 393 renal
[16] = tested on: TK-10 renal

## COc1ccc(N2C(=O)C3ON(C(C(N)=O)c4ccccc4)C(c4cc5ccccc5c5ccccc45)C3C2=O)cc1 (stereo unspecified)
[1]
  TGI: > 50 µM
[2]
  TGI: > 50 µM
[3]
  TGI: > 50 µM
[4]
  TGI: > 50 µM
[5]
  TGI: > 50 µM
[6]
  TGI: > 50 µM
[7]
  TGI: > 50 µM
[8]
  TGI: 35.6 µM
[9]
  TGI: > 50 µM
[10]
  TGI: > 50 µM
[11]
  TGI: > 50 µM
[12]
  TGI: > 50 µM
[13]
  TGI: > 50 µM
[14]
  TGI: > 50 µM
[15]
  TGI: > 50 µM
[16]
  TGI: > 50 µM

## CN(/N=C/c1ccc(OCc2cccc(COc3ccc(C=O)cc3)n2)cc1)c1cnn(-c2ccc(Cl)cc2Cl)c(=O)c1Cl
[1]
  TGI: > 100 µM
[2]
  TGI: > 100 µM
[3]
  TGI: > 100 µM
[4]
  TGI: > 100 µM
[5]
  TGI: > 100 µM
[6]
  TGI: > 100 µM
[7]
  TGI: > 100 µM
[8]
  TGI: > 100 µM
[9]
  TGI: > 100 µM
[10]
  TGI: > 100 µM
[11]
  TGI: > 100 µM
[12]
  TGI: > 100 µM
[13]
  TGI: > 100 µM
[14]
  TGI: > 100 µM
[15]
  TGI: 73.2 µM
[16]
  TGI: > 100 µM

## CC1ON2CCCC2[C@H]1C(=O)N1C2CC3CCC2(CS1(=O)=O)C3(C)C (stereo partly specified)
[1]
  TGI: > 100 µM
[2]
  TGI: > 100 µM
[3]
  TGI: > 100 µM
[4]
  TGI: > 100 µM
[5]
  TGI: > 100 µM
[6]
  TGI: > 100 µM
[7]
  TGI: > 100 µM
[8]
  TGI: > 100 µM
[9]
  TGI: > 100 µM
[10]
  TGI: > 100 µM
[11]
  TGI: > 100 µM
[12]
  TGI: > 100 µM
[13]
  TGI: > 100 µM
[14]
  TGI: > 100 µM
[15]
  TGI: > 100 µM
[16]
  TGI: > 100 µM

## CCNc1cc2c(cc1O)CC[C@@H]1[C@@H]2CC[C@]2(C)[C@@H](O)CC[C@@H]12
[1]
  TGI: 34.8 µM
[2]
  TGI: 15 µM
[3]
  TGI: 8.12 µM
[4]
  TGI: 33.7 µM
[5]
  TGI: 22.4 µM
[6]
  TGI: 25 µM
[7]
  GI50: 0.0515 µM
  TGI: 0.712 µM
[8]
  TGI: 2.14 µM
[9]
  TGI: 21.6 µM
[10]
  TGI: 28.7 µM
[11]
  TGI: 20.9 µM
[12]
  GI50: 0.815 µM
  TGI: 3.63 µM
[13]
  TGI: 21.5 µM
[14]
  TGI: 24.1 µM
[15]
  TGI: 20.6 µM
[16]
  TGI: 34 µM

## CC(OC(C)(C)C)C(NC(=O)C(CCCCNC(=O)OC(C)(C)C)NC(=O)C(Cc1c[nH]c2ccccc12)NC(=O)C(Cc1ccccc1)NC(=O)OCc1ccccc1)C(=O)NC(Cc1ccccc1)C(=O)O (stereo unspecified) (Cbz-FWK(Boc)T(tBu)F-OH; configuration not given here)
[1]
  TGI: > 100 µM
[2]
  TGI: > 100 µM
[3]
  TGI: > 100 µM
[4]
  TGI: > 100 µM
[5]
  TGI: > 100 µM
[6]
  TGI: > 100 µM
[7]
  TGI: > 100 µM
[8]
  TGI: > 100 µM
[9]
  TGI: > 100 µM
[10]
  TGI: > 100 µM
[11]
  TGI: > 100 µM
[12]
  TGI: 85 µM
[13]
  TGI: > 100 µM
[14]
  TGI: > 100 µM
[15]
  TGI: > 100 µM
[16]
  TGI: > 100 µM

## NCCCCC(N)C(=O)NCCNc1ccc(NCCNC(=O)C(N)CCCCN)c2c1C(=O)c1ccccc1C2=O (stereo unspecified)
[1]
  TGI: > 100 µM
[2]
  TGI: > 100 µM
[3]
  TGI: > 100 µM
[4]
  TGI: > 100 µM
[5]
  TGI: > 100 µM
[6]
  TGI: > 100 µM
[7]
  TGI: > 100 µM
[8]
  TGI: > 100 µM
[9]
  TGI: > 100 µM
[10]
  TGI: > 100 µM
[11]
  TGI: > 100 µM
[12]
  TGI: > 100 µM
[13]
  TGI: > 100 µM
[14]
  TGI: > 69 µM
[15]
  TGI: 21.6 µM
[16]
  TGI: > 100 µM

## CCn1c(SCC(=O)NNC(=S)Nc2ccc(C)cc2)nc2ccccc2c1=O
[1]
  TGI: > 100 µM
[2]
  TGI: > 100 µM
[3]
  TGI: > 100 µM
[4]
  TGI: > 100 µM
[5]
  TGI: > 100 µM
[6]
  TGI: > 100 µM
[7]
  TGI: > 100 µM
[8]
  TGI: > 100 µM
[9]
  TGI: > 100 µM
[10]
  TGI: > 100 µM
[11]
  TGI: > 100 µM
[12]
  TGI: > 100 µM
[13]
  TGI: > 100 µM
[14]
  TGI: > 100 µM
[15]
  TGI: > 100 µM
[16]
  TGI: > 100 µM

## COC(=O)CCc1cc(O)c2c(c1)C(C(=O)OC)C(c1ccc(O)c(O)c1)O2 (stereo unspecified)
[1]
  TGI: > 100 µM
[2]
  TGI: > 100 µM
[3]
  TGI: > 21.8 µM
[4]
  TGI: > 96.4 µM
[5]
  TGI: > 46.5 µM
[6]
  TGI: > 100 µM
[7]
  TGI: 4.67 µM
[8]
  TGI: 13.3 µM
[9]
  TGI: > 75 µM
[10]
  TGI: > 100 µM
[11]
  TGI: > 100 µM
[12]
  TGI: > 67.1 µM
[13]
  TGI: > 100 µM
[14]
  TGI: 65.1 µM
[15]
  TGI: > 100 µM
[16]
  TGI: > 100 µM

## O=C1N[C@@H](c2c[nH]c3cc(Br)ccc23)C(=O)N[C@H]1c1c[nH]c2cc(Br)ccc12
[1]
  TGI: > 100 µM
[2]
  TGI: > 100 µM
[3]
  TGI: > 100 µM
[4]
  TGI: > 100 µM
[5]
  TGI: > 100 µM
[6]
  TGI: > 100 µM
[7]
  TGI: > 100 µM
[8]
  TGI: > 100 µM
[9]
  TGI: > 100 µM
[10]
  TGI: > 100 µM
[11]
  TGI: > 100 µM
[12]
  TGI: > 100 µM
[13]
  TGI: > 100 µM
[14]
  TGI: > 100 µM
[15]
  TGI: > 100 µM
[16]
  TGI: > 100 µM
